Results on 32 compounds are retold here after patent US8906904B2, “Alkoxy pyrazoles as soluble guanylate cyclase activators” (Boehringer Ingelheim International GmbH, priority 2012, dated 2014).

Data set [1] deals with T1, human soluble guanylate cyclase alpha 1 and beta 1 subunits (sGC) (Homo sapiens, UniProt Q02108+Q02153).
T1 construct: expressed in transfected cells; host or cells: Chinese hamster ovary (CHO) cells, stably transfected
T1 sequence (Q02108 1-690): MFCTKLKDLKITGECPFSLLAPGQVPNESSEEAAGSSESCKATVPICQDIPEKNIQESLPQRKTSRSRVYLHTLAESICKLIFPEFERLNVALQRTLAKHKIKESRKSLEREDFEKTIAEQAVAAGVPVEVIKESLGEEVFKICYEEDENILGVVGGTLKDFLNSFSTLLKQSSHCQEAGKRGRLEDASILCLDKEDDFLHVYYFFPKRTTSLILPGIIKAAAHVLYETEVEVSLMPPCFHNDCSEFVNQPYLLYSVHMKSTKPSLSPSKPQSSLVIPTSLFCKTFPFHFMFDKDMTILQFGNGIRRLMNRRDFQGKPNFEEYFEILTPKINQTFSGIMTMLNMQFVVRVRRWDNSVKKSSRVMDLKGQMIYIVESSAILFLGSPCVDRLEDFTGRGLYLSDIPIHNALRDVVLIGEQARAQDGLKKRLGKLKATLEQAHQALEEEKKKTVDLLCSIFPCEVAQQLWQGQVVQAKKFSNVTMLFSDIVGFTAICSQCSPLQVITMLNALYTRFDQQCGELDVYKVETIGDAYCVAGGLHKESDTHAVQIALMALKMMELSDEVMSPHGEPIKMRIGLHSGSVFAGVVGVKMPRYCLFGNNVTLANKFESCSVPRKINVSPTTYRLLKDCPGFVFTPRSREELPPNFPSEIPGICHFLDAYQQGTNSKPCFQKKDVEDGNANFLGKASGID
T1 sequence (Q02153 1-619): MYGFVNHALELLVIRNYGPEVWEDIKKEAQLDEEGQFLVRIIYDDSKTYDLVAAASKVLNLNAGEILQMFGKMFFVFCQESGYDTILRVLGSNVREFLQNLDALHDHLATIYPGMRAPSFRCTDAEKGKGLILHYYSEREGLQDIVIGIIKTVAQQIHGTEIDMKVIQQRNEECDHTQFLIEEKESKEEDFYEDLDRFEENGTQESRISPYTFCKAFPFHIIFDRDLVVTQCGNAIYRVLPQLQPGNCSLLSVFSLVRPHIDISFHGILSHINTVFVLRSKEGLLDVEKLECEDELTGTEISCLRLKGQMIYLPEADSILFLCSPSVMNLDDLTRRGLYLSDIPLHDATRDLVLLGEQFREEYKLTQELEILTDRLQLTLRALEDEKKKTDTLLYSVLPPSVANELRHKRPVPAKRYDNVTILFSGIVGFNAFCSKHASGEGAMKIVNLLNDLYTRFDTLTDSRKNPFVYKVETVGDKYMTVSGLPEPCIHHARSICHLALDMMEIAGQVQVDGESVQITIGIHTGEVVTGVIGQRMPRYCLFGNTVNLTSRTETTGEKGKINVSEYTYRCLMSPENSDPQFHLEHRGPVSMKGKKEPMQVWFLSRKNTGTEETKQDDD
Put plainly: sGC cellular activator assay (cGMP, HTRF). It is filed as cell-based. The settings on record: CHO cells stably expressing human sGC alpha 1/beta 1, preincubated with 40 microM ODQ; cGMP readout; assay run with and without 50% human serum, Table 2 does not say which. An outline of the steps: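 First, CHO-sGC (human α1β1) cells get 1 h ODQ at 40 microM with IBMX and 0.1% BSA. Finally, cGMP is quantified by HTRF and EC50 computed.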
On the technique in general: In TR-FRET formats the signal depends on donor and acceptor labels being close together.

A short description of data set [2]: human liver microsome (HLM) metabolic stability assay. The data set is classed as in vitro ADME. To be noted: human liver microsomes; % hepatic blood flow calculated from t1/2. The gist of the method: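 Compounds at 1 uM incubated with human liver microsomes plus NADPH at 37° C., sampled at 0, 5, 15, 30 and 60 min into cold acetonitrile and quantified by LC/MS/MS. t½ from the slope of ln % remaining vs time; CLint, CLh and % Qh derived from it (n=1).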

On to `COc1c(C(=O)O)cnn1-c1cccc(-c2cccc(C)c2OCc2ccc3c(c2)CCN([C@H]2CC[C@@H](OC)CC2)C3)n1` [Compound 91], for which the response in data set [1] was half-maximal at 75 nM (EC50). Also, the “HLM (% Qh)” value in data set [2] is <24 % Qh.

Regarding `COc1c(C(=O)O)cnn1-c1cccc(-c2cccc(C)c2OCc2ccc3c(c2)CCN(C2C4CCOC4C2(C)C)C3)n1` (stereo not shown) [Compound 75], it took 23 nM to reach a half-maximal effect in data set [1] (EC50). For the same compound, the “HLM (% Qh)” value in data set [2] is given as 31 % Qh.

Turning to `CCOc1c(C(=O)O)cnn1-c1cccc(-c2cccc(C)c2OCc2ccc3c(c2)CCN(CC2CC(F)(F)C2)C3)n1` [Compound 96], in data set [1], it took 24 nM to reach a half-maximal effect (EC50). Also, the “HLM (% Qh)” value in data set [2] is recorded as 30 % Qh.

Turning to `COc1c(C(=O)O)cnn1-c1cccc(-c2cccc(C)c2OCc2ccc3c(c2)CCN(CCS(C)(=O)=O)C3)n1` [Compound 74], it took 73 nM to reach a half-maximal effect in data set [1] (EC50). For the same compound, the “HLM (% Qh)” value in data set [2] was <24 % Qh.

Turning to `COc1c(C(=O)O)cnn1-c1cccc(-c2cccc(C)c2OCc2ccc3c(c2)CCN(CC2CC2(F)F)C3)n1` (stereo not shown) [Compound 72, 1-(6-{2-[2-(2,2-difluoro-cyclopropylmethyl)-1,2,3,4-tetrahydro-isoquinolin-6-ylmethoxy]-3-methyl-phenyl}-pyridin-2-yl)-5-methoxy-1H-pyrazole-4-carboxylic acid], in data set [1], a half-maximal response (EC50) required 17 nM. In data set [2], the “HLM (% Qh)” value is on record as 47 % Qh.

Turning to `Cc1cccc(-c2cccc(-n3ncc(C(=O)O)c3OC(C)C)n2)c1OCc1ccc2c(c1)CCN(C1CCCOC1)C2` (stereo not shown) [Compound 42], the concentration giving a half-maximal response (EC50) (commonly the concentration at which the effect is half-maximal) in data set [1] was determined as 24 nM. Besides, in data set [2], the “HLM (% Qh)” value was <24 % Qh.

`CCOc1c(C(=O)O)cnn1-c1cccc(-c2cccc(C)c2OCc2ccc3c(c2)CCN(C(C)CS(C)(=O)=O)C3)n1` (stereo not shown) [Compound 70] gave a concentration giving a half-maximal response (EC50) in data set [1] of 180 nM. The “HLM (% Qh)” value in data set [2] was <24 % Qh.

Compound `COc1c(C(=O)O)cnn1-c1cccc(-c2cccc(C(F)(F)F)c2OCc2ccc3c(c2C)CCN(C2COC2)C3)n1` [Compound 88] had a concentration for a half-maximal effect (EC50) in data set [1] of 28 nM. For the same compound, in data set [2], the “HLM (% Qh)” value was <24 % Qh.

In data set [1], `CCOc1c(C(=O)O)cnn1-c1cccc(-c2cccc(Cl)c2OCc2ccc3c(c2)CCN(C2CCOCC2)C3)n1` [Compound 54] displayed a concentration giving a half-maximal response (EC50) of 110 nM. Further, the “HLM (% Qh)” value in data set [2] is given as <24 % Qh.

In turn, `CCOc1c(C(=O)O)cnn1-c1cccc(-c2cccc(C)c2OCc2ccc3c(c2)CCN(CC2CCOC(C)(C)C2)C3)n1` (stereo not shown) [Compound 80] gave a concentration for a half-maximal effect (EC50) in data set [1] of 45 nM. For the same compound, the “HLM (% Qh)” value in data set [2] was <24 % Qh.

`CCOc1c(C(=O)O)cnn1-c1cccc(-c2cccc(C)c2OCc2ccc3c(c2)CCN(C2CC(C)(C)OC(C)(C)C2)C3)n1` [Compound 67] came in with a concentration for a half-maximal effect (EC50) in data set [1] of 320 nM. For the same compound, the “HLM (% Qh)” value in data set [2] is recorded as <24 % Qh.

In data set [1], `COc1c(C(=O)O)cnn1-c1cccc(-c2cc(F)cc(F)c2OCc2ccc3c(c2)CCN(C2CCOCC2)C3)n1` [Compound 53] yielded a concentration for a half-maximal effect (EC50) of 110 nM. Also, the “HLM (% Qh)” value in data set [2] is given as <24 % Qh.

`CCOc1c(C(=O)O)cnn1-c1cccc(-c2cccc(C)c2OCc2ccc3c(c2)CCN(C2CCOC2)C3)n1` (stereo not shown) [Compound 35] displayed an EC50 in data set [1] of 29 nM. For the same compound, in data set [2], the “HLM (% Qh)” value is given as <24 % Qh.

Compound `Cc1cccc(-c2cccc(-n3ncc(C(=O)O)c3OC(C)C)n2)c1OCc1ccc2c(c1C)CCN(C1COC1)C2` [Compound 45] returned a half-maximal effective concentration (EC50) in data set [1] of 26 nM. Also, in data set [2], the “HLM (% Qh)” value is <24 % Qh.

Consider `Cc1cccc(-c2cccc(-n3ncc(C(=O)O)c3OC(C)C)n2)c1OCc1ccc2c(c1)CCN(C1CCC(F)(F)CC1)C2` [Compound 2], for which, in data set [1], the 50% effective concentration (EC50) worked out at 11 nM. The “HLM (% Qh)” value in data set [2] is <24 % Qh.

On to `COc1c(C(=O)O)cnn1-c1cccc(-c2cccc(C)c2OCc2ccc3c(c2)CN(C2COC2)C3)n1` [Compound 85], for which, in data set [1], the EC50 is 22 nM. Also, the “HLM (% Qh)” value in data set [2] is listed as <24 % Qh.

Regarding `Cc1cccc(-c2cccc(-n3ncc(C(=O)O)c3OC(C)C)n2)c1OCc1ccc2c(c1)CCN(CC1CC(F)(F)C1)C2` [Compound 4, 1-(6-{2-[2-(3,3-difluoro-cyclobutylmethyl)-1,2,3,4-tetrahydro-isoquinolin-6-ylmethoxy]-3-methyl-phenyl}-pyridin-2-yl)-5-isopropoxy-1H-pyrazole-4-carboxylic acid], it took 11 nM to reach a half-maximal effect in data set [1] (EC50). In addition, the “HLM (% Qh)” value in data set [2] is on record as <24 % Qh.

In data set [1], `Cc1cccc(-c2cccc(-n3ncc(C(=O)O)c3OC(C)C)n2)c1OCc1ccc2c(c1)CCN(C1COC1)C2` [Compound 39] gave a concentration for a half-maximal effect (EC50) of 17 nM. For the same compound, the “HLM (% Qh)” value in data set [2] is <24 % Qh.

As for `COc1c(C(=O)O)cnn1-c1cccc(-c2cccc(C(F)(F)F)c2OCc2ccc3c(c2C)CCN(C2CCOCC2)C3)n1` [Compound 84], the 50% effective concentration (EC50) in data set [1] was found to be 9 nM. For the same compound, in data set [2], the “HLM (% Qh)” value is listed as <24 % Qh.

The compound `CCOc1c(C(=O)O)cnn1-c1cccc(-c2cccc(C)c2OCc2ccc3c(c2)CCN(CC2CCOC2)C3)n1` (stereo not shown) [Compound 68] registered an EC50 in data set [1] of 38 nM. In addition, the “HLM (% Qh)” value in data set [2] is listed as <24 % Qh.

`CCOc1c(C(=O)O)cnn1-c1cccc(-c2cccc(C)c2OCc2ccc3c(c2)CCN(C2CCCOC2)C3)n1` (stereo not shown) [Compound 36] displayed an EC50 in data set [1] of 27 nM. In addition, the “HLM (% Qh)” value in data set [2] is reported as <24 % Qh.

With `Cc1cccc(-c2cccc(-n3ncc(C(=O)O)c3OC(C)C)n2)c1OCc1ccc2c(c1)CCN(C(C)C)C2` [Compound 37], in data set [1], the EC50 is 120 nM. Moreover, the “HLM (% Qh)” value in data set [2] is <24 % Qh.

Regarding `COCC(C)N1CCc2c(ccc(COc3c(C)cccc3-c3cccc(-n4ncc(C(=O)O)c4OC(C)C)n3)c2C)C1` (stereo not shown) [Compound 44], the half-maximal effective concentration (EC50) in data set [1] amounted to 44 nM. Further, the “HLM (% Qh)” value in data set [2] is given as <24 % Qh.

`CCOc1c(C(=O)O)cnn1-c1cccc(-c2cccc(C)c2OCc2ccc3c(c2)CCN(C2CCOC(C)C2)C3)n1` (stereo not shown) [Compound 78] returned an EC50 in data set [1] of 48 nM. Also, the “HLM (% Qh)” value in data set [2] is reported as <24 % Qh.

In the case of `Cc1cccc(-c2cccc(-n3ncc(C(=O)O)c3OC(C)C)n2)c1OCc1ccc2c(c1C)CCN(CC1(C)COC1)C2` [Compound 46], the EC50 in data set [1] came out at 38 nM. Further, the “HLM (% Qh)” value in data set [2] is listed as <24 % Qh.

As to `COc1c(C(=O)O)cnn1-c1cccc(-c2cccc(C)c2OCc2ccc3c(c2)CCN(C2CCC(F)(F)CC2)C3)n1` [Compound 5], in data set [1], the response was half-maximal at 9 nM (EC50). Also, the “HLM (% Qh)” value in data set [2] is listed as <24 % Qh.

Take `CCOc1c(C(=O)O)cnn1-c1cccc(-c2cccc(Cl)c2OCc2ccc3c(c2)CCN(C(C)CO)C3)n1` (stereo not shown) [Compound 56]: it took 820 nM to reach a half-maximal effect in data set [1] (EC50). Also, the “HLM (% Qh)” value in data set [2] was <24 % Qh.

In data set [1], `COc1c(C(=O)O)cnn1-c1cccc(-c2cccc(C)c2OCc2ccc3c(c2)CCN(C2CCOCC2)C3)n1` [Compound 3] showed a concentration for a half-maximal effect (EC50) of 29 nM. In data set [2], the “HLM (% Qh)” value was <24 % Qh.

`COc1c(C(=O)O)cnn1-c1cccc(-c2cccc(C(F)(F)F)c2OCc2ccc3c(c2)CN(C2CCOCC2)C3)n1` [Compound 93] showed an EC50 in data set [1] of 37 nM. The “HLM (% Qh)” value in data set [2] is listed as <24 % Qh.

As to `COc1c(C(=O)O)cnn1-c1cccc(-c2cccc(C)c2OCc2ccc3c(c2)CCN(C2CCOC(C)(C)C2)C3)n1` (stereo not shown) [Compound 61], the response in data set [1] was half-maximal at 59 nM (EC50). Moreover, in data set [2], the “HLM (% Qh)” value is given as <24 % Qh.

`COc1c(C(=O)O)cnn1-c1cccc(-c2cccc(C(F)(F)F)c2OCc2ccc3c(c2)CCN(C2CCOCC2)C3)n1` [Compound 83] returned an EC50 in data set [1] of 29 nM. The “HLM (% Qh)” value in data set [2] is listed as <24 % Qh.

For `CCOc1c(C(=O)O)cnn1-c1cccc(-c2cccc(C)c2OCc2ccc3c(c2)CCN(C2COC2)C3)n1` [Compound 6], in data set [1], the response was half-maximal at 87 nM (EC50). Also, in data set [2], the “HLM (% Qh)” value is on record as <24 % Qh.
